Results taken from patent US20030162762A1, “Novel cephalosporin compounds and process for preparing the same” (priority 2000, published 2003).
≈ marks a conversion by molar mass, not a printed value.

Experiments:
Assay in all cases: Minimum Inhibitory Concentration (MIC), agar dilution, standard strains
S. aureus 241 = type: cell-based, Staphylococcus aureus; settings: Table 1, Mueller-Hinton agar, 37° C., 20 hours; for MIC: Staphylococcus aureus, 241, read-out: Minimum Inhibitory Concentration, S. aureus 241
Method: (§1) The effectiveness of the compound according to the present invention was determined by obtaining Minimum Inhibitory Concentration (MIC) of the compounds prepared by the above examples (Compounds I-1 to I-41) and vancomycin, which is the known compound having a potent activity against gram-positive strains, as the control drug against the standard strains. Specifically, Minimum Inhibitory Concentration was obtained by diluting the test compound according to a double dilution method, dispersing them in Mueller-Hinton agar medium, inoculating each of the test strain having 10^7 cfu (colony forming unit) per ml in an amount of 2 μl to the medium and then incubating them at 37° C. for 20 hours. From the result of Minimum Inhibitory Concentration test, it can be seen that the compound according to the present invention has a good activity against major pathogenic microorganisms, which cause hospital infection, including MRSA strains.

S. aureus 77 = type: cell-based, Staphylococcus aureus; settings: Table 1, Mueller-Hinton agar, 37° C., 20 hours; for MIC: Staphylococcus aureus, 77, read-out: Minimum Inhibitory Concentration, S. aureus 77
Method: as §1

[1] = test system: Staphylococcus aureus giorgio; type: cell-based; settings: Table 1, Mueller-Hinton agar, 37° C., 20 hours; for MIC: Staphylococcus aureus, read-out: Minimum Inhibitory Concentration, Staphylococcus aureus giorgio
Method: as §1

S. epidermidis R005 = type: cell-based; settings: Table 1, Mueller-Hinton agar, 37° C., 20 hours; for MIC: Staphylococcus epidermidis, R005, read-out: Minimum Inhibitory Concentration, S. epidermidis R005
Method: as §1

E. faecalis L239 = type: cell-based; settings: Table 1, Mueller-Hinton agar, 37° C., 20 hours; for MIC: Enterococcus faecalis, L239, read-out: Minimum Inhibitory Concentration, E. faecalis L239
Method: as §1

SMILES | Minimum Inhibitory Concentration, S. aureus 241 (S. aureus 241) [µg/mL] | Minimum Inhibitory Concentration, S. aureus 77 (S. aureus 77) [µg/mL] | Minimum Inhibitory Concentration, Staphylococcus aureus giorgio [1] [µg/mL] | Minimum Inhibitory Concentration, S. epidermidis R005 (S. epidermidis R005) [µg/mL] | Minimum Inhibitory Concentration, E. faecalis L239 (E. faecalis L239) [µg/mL] | MIC (S. aureus 241) [µg/mL] | MIC (S. aureus 77) [µg/mL] | MIC [1] [µg/mL] | MIC (S. epidermidis R005) [µg/mL] | MIC (E. faecalis L239) [µg/mL]
Nc1nc[n+](C/C=C/C2=C(C(=O)O)N3C(=O)[C@@H](NC(=O)CSc4cc(Cl)ccc4Cl)[C@H]3SC2)c(N)c1N [Compound I-35] | 2 | 0.25 | 0.016 | 0.25 | 0.5 | – | – | – | – | –
Nc1nc(SC/C=C/C2=C(C(=O)O)N3C(=O)[C@@H](NC(=O)CSc4cc(Cl)ccc4Cl)[C@H]3SC2)nc2c1CCC2 [Compound I-20, (6R,7R)-3-{(E)-3-[(4-amino-6,7-dihydro-5H-cyclopenta[d]pyrimidin-2-yl)sulfanyl]-1-propenyl}-7-({2-[(2,5-dichlorophenyl)sulfanyl]acetyl}amino)-8-oxo-5-thia-1-azabicyclo[4.2.0]oct-2-ene-2-carboxylic acid] | – | – | – | – | – | 32 (≈ 51.2 µM) | 2 (≈ 3.2 µM) | 0.063 (≈ 0.101 µM) | 2 (≈ 3.2 µM) | 2 (≈ 3.2 µM)
Cc1nc(N)cc(N(C)C)[n+]1C/C=C/C1=C(C(=O)O)N2C(=O)[C@@H](NC(=O)CSc3cc(Cl)ccc3Cl)[C@H]2SC1 [Compound I-37, 4-amino-1-{(E)-3-[(6R,7R)-2-carboxy-7-({2-[(2,5-dichlorophenyl)sulfanyl]acetyl}amino)-8-oxo-5-thia-1-azabicyclo[4.2.0]oct-2-en-3-yl]-2-propenyl}-6-(dimethylamino)-2-methylpyrimidin-1-ium] | 4 | 0.25 | 0.016 | 0.25 | 0.5 | – | – | – | – | –
Nc1nc(O)cc(SC/C=C/C2=C(C(=O)O)N3C(=O)[C@@H](NC(=O)CSc4cc(Cl)ccc4Cl)[C@H]3SC2)n1 [Compound I-1, (6R,7R)-3-{(E)-3-[(2-amino-6-hydroxy-4-pyrimidinyl)sulfanyl]-1-propenyl}-7-({2-[(2,5-dichlorophenyl)sulfanyl]acetyl}amino)-8-oxo-5-thia-1-azabicyclo[4.2.0]oct-2-ene-2-carboxylic acid] | – | – | – | – | – | 4 (≈ 6.66 µM) | 0.25 (≈ 0.416 µM) | < 0.008 | 0.13 (≈ 0.216 µM) | 0.25 (≈ 0.416 µM)
O=C(CSc1cc(Cl)ccc1Cl)N[C@@H]1C(=O)N2C(C(=O)O)=C(/C=C/CSc3ncnc4[nH]ncc34)CS[C@H]12 [Compound I-27] | 2 | 0.13 | <0.008 | 0.13 | 0.13 | – | – | – | – | –
Nc1cc(SC/C=C/C2=C(C(=O)O)N3C(=O)[C@@H](NC(=O)CSc4cc(Cl)ccc4Cl)[C@H]3SC2)nc(N)n1 [Compound I-3, (6R,7R)-3-{(E)-3-[(2,6-diamino-4-pyrimidinyl)sulfanyl]-1-propenyl}-7-({2-[(2,5-dichlorophenyl)sulfanyl]acetyl}amino)-8-oxo-5-thia-1-azabicyclo[4.2.0]oct-2-ene-2-carboxylic acid] | – | – | – | – | – | 4 (≈ 6.67 µM) | 0.13 (≈ 0.217 µM) | < 0.008 | 0.13 (≈ 0.217 µM) | 0.5 (≈ 0.834 µM)
CSc1nc(C)cc(SC/C=C/C2=C(C(=O)O)N3C(=O)[C@@H](NC(=O)CSc4cc(Cl)ccc4Cl)[C@H]3SC2)n1 [Compound I-28, (6R,7R)-7-({2-[(2,5-dichlorophenyl)sulfanyl]acetyl}amino)-3-((E)-3-{[6-methyl-2-(methylsulfanyl)-4-pyrimidinyl]sulfanyl}-1propenyl)-8-oxo-5-thia-1-azabicyclo [4.2.0]oct-2-ene-2-carboxylic acid] | – | – | – | – | – | 32 (≈ 50.8 µM) | 0.25 (≈ 0.397 µM) | 0.016 (≈ 0.0254 µM) | 0.25 (≈ 0.397 µM) | 0.5 (≈ 0.794 µM)
Cc1c(N)nc(SC/C=C/C2=C(C(=O)O)N3C(=O)[C@@H](NC(=O)CSc4cc(Cl)ccc4Cl)[C@H]3SC2)nc1N [Compound I-26, (6R,7R)-3-{(E)-3-[(4,6-diamino-5-methyl-2-pyrimidinyl)sulfanyl]-1-propenyl}-7-({2-[(2,5-dichlorophenyl)sulfanyl]acetyl}amino)-8-oxo-5-thia-1-azabicyclo[4.2.0]oct-2-ene-2-carboxylic acid] | – | – | – | – | – | 16 (≈ 26.1 µM) | 1 (≈ 1.63 µM) | 0.13 (≈ 0.212 µM) | 2 (≈ 3.26 µM) | 2 (≈ 3.26 µM)
Nc1cc(N)nc(SC/C=C/C2=C(C(=O)O)N3C(=O)[C@@H](NC(=O)CSc4cc(Cl)ccc4Cl)[C@H]3SC2)n1 [Compound I-24, (6R,7R)-3-{(E)-3-[(4,6-diamino-2-pyrimidinyl)sulfanyl]-1-propenyl}-7-({2-[(2,5-dichlorophenyl)sulfanyl]acetyl}amino)-8-oxo-5-thia-1-azabicyclo[4.2.0]oct-2-ene-2-carboxylic acid] | – | – | – | – | – | 4 (≈ 6.67 µM) | 0.25 (≈ 0.417 µM) | 0.016 (≈ 0.0267 µM) | 0.13 (≈ 0.217 µM) | 0.5 (≈ 0.834 µM)
C[n+]1c(N)cc(SC/C=C/C2=C(C(=O)O)N3C(=O)[C@@H](NC(=O)CSc4cc(Cl)ccc4Cl)[C@H]3SC2)nc1N [Compound I-22, (6R,7R)-2,6-diamino-4-({(E)-3-[2-carboxy-7-({2-[(2,5-dichlorophenyl)sulfanyl]acetyl}amino)-8-oxo-5-thia-1-azabicyclo[4.2.0]oct-2-en-3-yl]-2-propenyl}sulfanyl)-1-methylpyrimidin-1-ium] | 1 | 0.063 | <0.008 | 0.063 | 0.25 | – | – | – | – | –
Nc1cc[n+](N)c(SCC2=C(C(=O)O)N3C(=O)[C@@H](NC(=O)CSc4cc(Cl)ccc4Cl)[C@H]3SC2)n1 [Compound I-6, 1,4-diamino-2-({[(6R,7R)-2-carboxy-7-({2-[(2,5-dichlorophenyl)sulfanyl]acetyl}amino)-8-oxo-5-thia-1-azabicyclo[4.2.0]oct-2-en-3-yl]methyl}sulfanyl)pyrimidin-1-ium] | 4 | 0.031 | <0.008 | 0.063 | 4 | – | – | – | – | –
CNc1cc(N)nc(C)[n+]1C/C=C/C1=C(C(=O)O)N2C(=O)[C@@H](NC(=O)CSc3cc(Cl)ccc3Cl)[C@H]2SC1 [Compound I-38, 4-amino-1-{(E)-3-[(6R,7R)-2-carboxy-7-({2-[(2,5-dichlorophenyl)sulfanyl]acetyl}amino)-8-oxo-5-thia-1-azabicyclo[4.2.0]oct-2-en-3-yl]-2-propenyl}-2-methyl-6-(methylamino)pyrimidin-1-ium] | 8 | 1 | 0.031 | 0.5 | 1 | – | – | – | – | –
Nc1cc[n+](C/C=C/C2=C(C(=O)O)N3C(=O)[C@@H](NC(=O)CSc4cc(Cl)ccc4Cl)[C@H]3SC2)cn1 [Compound I-2, 4-amino-1-{(E)-3-[(6R,7R)-2-carboxy-7-({2-[(2,5-dichlorophenyl)sulfanyl]acetyl}amino)-8-oxo-5-thia-1-azabicyclo[4.2.0]oct-2-en-3-yl]-2-propenyl}pyrimidin-1-ium] | 4 | 0.25 | <0.008 | 0.25 | 1 | – | – | – | – | –
Nc1nc[n+](C/C=C/C2=C(C(=O)O)N3C(=O)[C@@H](NC(=O)CSc4cc(Cl)ccc4Cl)[C@H]3SC2)c2c1CCC2 [Compound I-34] | 4 | 0.5 | <0.008 | 0.13 | 1 | – | – | – | – | –
